# Measurements reported in patent US20170318812A1, “Plant and Crop Growth Regulating/Biostimulant Formulations and Methods of Use” (Arysta Lifescience North America, LLC, priority 2014, published 2017).
# Several values for one entry are separate records, joined by “and”; a condition that tells them apart may be missing. Identical values can stand only once.
# Tested on: ZEAMX Zea mays (Corn)
# Assay: Ipfencarbazone biostimulant effect, early post emergence foliar application, greenhouse pots, plant height: corn
# Assay type: in vivo
# Conditions: ZEAMX AG7098PRO2
# Source text: The original objective of this Example was to evaluate the herbicidal effect of ipfencarbazone when applied as a post emergent treatment to a range of selected crops and weeds. Unexpectedly, crop plant growth stimulation was observed. The actual species of weeds and crops are listed in the summary data tabulated below and in FIGS. 1-13. By convention each plant species has a Bayer code (5-letter name) with the scientific name for the plant referenced in FIGS. 1-13. In each Figure, each tray contains the same configuration of weeds and/or crops. In each Figure there is one replication of each treatment (six treatments in total). The top three photographs in each Figure show the Bayer Codes and bottom three photographs are aligned with the top three facilitating viewing of the same plant species. Throughout the Examples various abbreviations as conventional shorthand notation and will be appreciated by those skilled in the art. Some exemplary abbreviations include, “CV”=Co-efficient of Variation,” “LSD”=Least Significant Difference” (G/L (gram per L) AND GA/L (gram of active ingredient per L); “SC”=suspension concentrate formulation. The diluent in all treatments was water. By convention factors that are identical in all treatments (e.g. diluent and surfactant) are not listed in each treatment.
# Methods: The indicated size pots (see Tables below) are filled with a specific soil, the soil properties being indicated below. The referenced crops and weeds are planted by hand in each pot. […] The experiments include six treatments each replicated three times on each crop/weed species. At a specific time after emergence each crop and weed species was treated with ipfencarbazone plus a non-ionic surfactant (NIS). In the present Example, the surfactant employed was ENERGIC™ (non-ionic surfactant). The application timing is indicated in each of the Tables (1 or 2 leaf stage) below. Ipfencarbazone plus surfactant was diluted in water and applied at a rate equivalent to about 250 L/ha. Ipfencarbazone was applied using a track sprayer. After treatment, the pots were randomized in a greenhouse. At each assessment (indicated by “days after treatment” or DAT) the height of each plant was measured. The letters next to each mean indicate the level of statistical significance.
# Replications: 3, Untreated treatments: 1, Design: Randomized Complete Block (RCB), Treatment units: Treated ‘Plot’ experimental unit size, Dry Form. Unit: %, Treated ‘Plot’ experimental unit size Width: 1 meter, Treated ‘Plot’ experimental unit size Length: 1.4 meters, Application volume: 250 L/ha, Mix size: 0.15 liters, […]
smiles,measurement,setting,value
"CC(C)N(C(=O)n1cnn(-c2ccc(Cl)cc2Cl)c1=O)c1ccc(F)cc1F [ARY-0572-001, ipfencarbazone]","HEIGHT, percent of untreated check (APoC)","62.5 g ai/ha, 15 DA-A",(146.7%)
same,"HEIGHT, treatment mean","62.5 g ai/ha, 15 DA-A",56.1 a cm and 56.1 cm
same,"HEIGHT, single plots (replicates)","62.5 g ai/ha, 15 DA-A, plots 102, 205, 302",52.3 cm and 64.8 cm and 51.0 cm
same,"HEIGHT, percent of untreated check (APoC)","62.5 g ai/ha, 28 DA-A",(175.8%)
same,"HEIGHT, treatment mean","62.5 g ai/ha, 28 DA-A",89.4 a cm and 89.4 cm
same,"HEIGHT, single plots (replicates)","62.5 g ai/ha, 28 DA-A, plots 102, 205, 302",71.3 cm and 106.7 cm and 90.3 cm
same,"HEIGHT, percent of untreated check (APoC)","125 g ai/ha, 15 DA-A",(156.4%)
same,"HEIGHT, treatment mean","125 g ai/ha, 15 DA-A",59.8 a cm and 59.8 cm
same,"HEIGHT, single plots (replicates)","125 g ai/ha, 15 DA-A, plots 103, 206, 305",62.7 cm and 59.0 cm and 57.7 cm
same,"HEIGHT, percent of untreated check (APoC)","125 g ai/ha, 28 DA-A",(168.8%)
same,"HEIGHT, treatment mean","125 g ai/ha, 28 DA-A",85.9 a cm and 85.9 cm
same,"HEIGHT, single plots (replicates)","125 g ai/ha, 28 DA-A, plots 103, 206, 305",103.0 cm and 82.0 cm and 72.7 cm
same,"HEIGHT, percent of untreated check (APoC)","250 g ai/ha, 15 DA-A",(155.4%)
same,"HEIGHT, treatment mean","250 g ai/ha, 15 DA-A",59.4 a cm and 59.4 cm
same,"HEIGHT, single plots (replicates)","250 g ai/ha, 15 DA-A, plots 104, 201, 306",56.5 cm and 61.0 cm and 60.7 cm
same,"HEIGHT, percent of untreated check (APoC)","250 g ai/ha, 28 DA-A",(208.3%)
same,"HEIGHT, treatment mean","250 g ai/ha, 28 DA-A",106.0 a cm and 106.0 cm
same,"HEIGHT, single plots (replicates)","250 g ai/ha, 28 DA-A, plots 104, 201, 306",108.3 cm and 104.0 cm and 105.7 cm
same,"HEIGHT, percent of untreated check (APoC)","500 g ai/ha, 15 DA-A",(161.9%)
same,"HEIGHT, treatment mean","500 g ai/ha, 15 DA-A",61.9 a cm and 61.9 cm
same,"HEIGHT, single plots (replicates)","500 g ai/ha, 15 DA-A, plots 105, 202, 301",58.7 cm and 67.0 cm and 60.0 cm
same,"HEIGHT, percent of untreated check (APoC)","500 g ai/ha, 28 DA-A",(205.9%)
same,"HEIGHT, treatment mean","500 g ai/ha, 28 DA-A",104.8 a cm and 104.8 cm
same,"HEIGHT, single plots (replicates)","500 g ai/ha, 28 DA-A, plots 105, 202, 301",101.7 cm and 107.7 cm and 105.0 cm
same,"HEIGHT, percent of untreated check (APoC)","1000 g ai/ha, 15 DA-A",(98.3%)
same,"HEIGHT, treatment mean","1000 g ai/ha, 15 DA-A",37.6 b cm and 37.6 cm
same,"HEIGHT, single plots (replicates)","1000 g ai/ha, 15 DA-A, plots 106, 203, 304",48.7 cm and 34.7 cm and 29.3 cm
same,"HEIGHT, percent of untreated check (APoC)","1000 g ai/ha, 28 DA-A",(117.9%)
same,"HEIGHT, treatment mean","1000 g ai/ha, 28 DA-A",60.0 b cm and 60.0 cm
same,"HEIGHT, single plots (replicates)","1000 g ai/ha, 28 DA-A, plots 106, 203, 304",91.7 cm and 44.0 cm and 44.3 cm
